Test in all cases: NCI anticancer screen, dose series, 48 h
For assay [1], the system named is UACC-257 melanoma.
In assay [2] the test system is HL-60(TB) leukemia.
For assay [3], the system named is K-562 leukemia.
Assay [4] deals with LOX IMVI melanoma.
Assay [5] deals with SF-539 CNS.
Assay [6] deals with NCI-H23 lung.
Assay [7] relates to SK-MEL-2 melanoma.
Assay [8] concerns BT-549 breast.
Assay [9] concerns PC-3 prostate.
In assay [10] the test system is M14 melanoma.

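48-hour exposure; five concentrations; linearly interpolated endpoints. GI50 is the concentration that inhibits growth by half. TGI marks complete inhibition of growth.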 Where only a bound is given, the exact number is not on record here.

As to `Cc1ccc(S(=O)(=O)OC2CCN(C)CC2)cc1`, the TGI was over 100 µM in [1]; 37.3 µM in [2]; 40.4 µM in [3]; over 100 µM in assay [4]; over 100 µM in assay [5]; over 100 µM in assay [6]. Further, the TGI in [7], in assay [8], in [9] and in assay [10] was over 100 µM in each case.

Consider `Clc1ccc(CSC(Cn2ccnc2)c2ccc(Cl)cc2Cl)cc1` (stereo not given), for which the GI50 in assay [1] was 1.43 µM; in assay [2], 2.15 µM; in assay [3] it was 2 µM; in assay [4], 1.59 µM; in assay [5] it was 1.73 µM; in assay [6] it was 1.5 µM. For the same molecule, the GI50 in [7] was 1.52 µM; in assay [8] it was 1.63 µM; in [9], 1.21 µM; in assay [10], 1.69 µM. For the same molecule, the TGI in assay [1] was determined as 2.86 µM; in assay [2], 4.54 µM; in [3] it was 4.81 µM; in [4], 2.93 µM; in assay [5], 3.36 µM; in assay [6], 3.6 µM. Further, the TGI in assay [7] was found to be 3 µM; in assay [8] it was 3.05 µM; in assay [9] it was 3.61 µM; in assay [10], 3.12 µM.

In the case of `C=CC[n+]1c(/C=C/C=C2\N(C)c3ccccc3C2(C)C)sc2ccc(OC)cc21`, the GI50 in assay [1] is 0.197 µM; in assay [2] it was 0.156 µM; in assay [3] it was 0.165 µM; in [4] it was 0.313 µM; in assay [5], 0.329 µM; in [6], 0.0761 µM. For the same molecule, the GI50 in assay [7] is 0.27 µM; in assay [8] it was 0.149 µM; in [9] it was 0.215 µM; in [10], 0.331 µM. In addition, the TGI was found to be 0.733 µM in assay [1]; 0.732 µM in [2]; 12.8 µM in assay [3]; 15.1 µM in assay [4]; 13.9 µM in [5]; 12.9 µM in [6]. Also, the TGI in assay [7] came out at 5.22 µM; in [8], 2.99 µM; in assay [9] it was 12.2 µM; in [10] it was 2.59 µM.

Consider `COc1c(C=O)c2c(c(OC)c1OC)-c1ccc(OC)c(=O)cc1[C@@H](NC(C)=O)CC2`, for which the TGI is over 88.8 µM in [1]; 0.0717 µM in assay [2]; over 100 µM in assay [3]; 49.8 µM in [4]; 0.0644 µM in [5]; 3.47 µM in assay [6]. Further, the TGI in [7] is 2.57 µM; in assay [8], over 100 µM; in [9] it was over 100 µM; in assay [10] it was over 25.2 µM.

For the molecule `OC(c1cccc(-n2ccc(C(F)(F)F)n2)c1)c1cnccc1NC1CCCCCC1` (stereo not given), the GI50 in [1] is 1.86 µM; in assay [2] it was 2.06 µM; in assay [3], 1.37 µM; in assay [4], 1.69 µM; in assay [5], 1.69 µM; in [6], 1.74 µM. Further, the GI50 in [7] was 2.01 µM; in assay [8] it was 1.63 µM; in assay [9], 1.59 µM; in assay [10] it was 1.78 µM. Moreover, the TGI in assay [1] came to 3.76 µM; in assay [2] it was 4.26 µM; in assay [3] it was 4.96 µM; in assay [4], 3.12 µM; in assay [5], 3.1 µM; in [6], 3.2 µM. Further, the TGI in assay [7] was determined as 3.82 µM; in assay [8], 3.06 µM; in assay [9], 3.09 µM; in assay [10], 3.29 µM.

Turning to `CCOC(=O)c1ccc2[nH]c(-c3ccc(S(=O)(=O)F)cc3)cc(=O)c2c1`, the TGI in assay [1] is over 100 µM; in [2], over 100 µM; in [3], over 100 µM; in assay [4], over 100 µM; in assay [5] it was over 100 µM; in assay [6] it was 47 µM. In addition, the TGI in [7], in assay [8], in [9] and in assay [10] was over 100 µM throughout.

`O=C(O)CCNc1ccccc1C(=O)O`: the TGI in assay [1], in [2], in assay [3], in [4], in assay [5] and in assay [6] was over 100 µM each time. The TGI in assay [7], in assay [8], in assay [9] and in [10] was over 100 µM throughout.

Regarding `COc1cc(C(=O)/C=C/c2c(C)n([O-])c3ccc(C)cc3[n+]2=O)cc(OC)c1OC`, the GI50 is 2.54 µM in [1]; 2.32 µM in assay [2]; 2.8 µM in assay [3]; 2.11 µM in assay [4]; 2.84 µM in assay [5]; 10.4 µM in [6]. Also, the GI50 is 15 µM in assay [7], 8.06 µM in [8], 12.9 µM in [9] and 4.27 µM in assay [10]. Besides, the TGI is 10.2 µM in assay [1]; 6.15 µM in assay [2]; over 24.7 µM in [3]; 5.91 µM in assay [4]; 7.12 µM in [5]; 26.4 µM in assay [6]. The TGI was 31.2 µM in assay [7], 33.2 µM in [8], over 59.3 µM in assay [9] and 10.3 µM in assay [10].

As to `Cc1c2cc[n+](C)cc2c(C)c2c1sc1ccccc12`, the TGI came to 7.01 µM in [1]; 28.4 µM in assay [2]; 41.3 µM in [3]; 22.1 µM in [4]; 2.01 µM in assay [5]; 2.29 µM in assay [6]. The TGI in assay [7] is 7.71 µM; in assay [8], 1.37 µM; in assay [9] it was 13.1 µM; in assay [10] it was 14.2 µM.

`Cc1cccc(NC(=O)CCc2ccc(N3C(N)=NC(N)=NC3(C)C)cc2)c1`: the GI50 in assay [1] was 28.1 µM; in assay [2], 0.641 µM; in [3] it was 0.715 µM; in assay [4], 0.654 µM; in [5], 1.93 µM; in assay [6] it was 6.32 µM. The GI50 is over 33.6 µM in [7], 10.9 µM in assay [8], 0.089 µM in assay [9] and over 29.2 µM in assay [10]. Moreover, the TGI in assay [1], in assay [2], in [3], in assay [4], in [5] and in assay [6] was over 100 µM each time. Also, the TGI in assay [7] is over 100 µM; in assay [8] it was over 100 µM; in assay [9] it was over 66.4 µM; in assay [10], over 100 µM.

As for `CCCCON(OC(=O)c1ccccc1)C(=O)c1ccccc1`, the GI50 was over 100 µM in assay [1]; 88.7 µM in assay [2]; 93.4 µM in assay [3]; over 100 µM in assay [4]; over 100 µM in assay [5]; over 100 µM in [6]. Further, the GI50 in [7], in assay [8], in assay [9] and in assay [10] was over 100 µM throughout. Moreover, the TGI in [1], in assay [2], in assay [3], in assay [4], in assay [5] and in assay [6] was over 100 µM each time. The TGI in assay [7], in [8], in [9] and in [10] was over 100 µM throughout.

`CC(=O)NCCc1c2c(c3nccc4c3c1Nc1ccccc1-4)OCS2`: the GI50 was 13.8 µM in assay [1]; 2.97 µM in [2]; 2.93 µM in [3]; 1.26 µM in assay [4]; 6.63 µM in assay [5]; 1.52 µM in [6]. Also, the GI50 in assay [7] was 3 µM; in assay [8], 6.13 µM; in [9], 2.95 µM; in assay [10] it was 1 µM. The TGI was 27 µM in [1]; 14.3 µM in [2]; 56.2 µM in [3]; 3.85 µM in assay [4]; 25.1 µM in assay [5]; 12.3 µM in assay [6]. For the same molecule, the TGI in assay [7] came out at 13.9 µM; in assay [8] it was 19.7 µM; in [9], 9.33 µM; in assay [10], 4.57 µM.

With `Cn1cc(-c2ccc3c(Nc4cccc(NC(=O)Nc5cccc(F)c5)c4)ncnc3c2)cn1`, the GI50 in assay [1] is 4.5 µM; in assay [2] it was 5.9 µM; in assay [3], 2.14 µM; in assay [4], 1.55 µM; in [5], 0.0554 µM; in [6], 2.99 µM. For the same molecule, the GI50 in assay [7] is 4.43 µM; in assay [8], 4.04 µM; in [9] it was 2.78 µM; in [10], 2.61 µM. Moreover, the TGI in assay [1] is 22.5 µM; in [2], 28 µM; in [3], over 100 µM; in assay [4], 3.64 µM; in assay [5], 2.21 µM; in assay [6], 13.4 µM. Further, the TGI in assay [7] was 17.8 µM; in assay [8], 16 µM; in [9], 15.5 µM; in assay [10], 14.9 µM.

Values taken from PubChem BioAssay (NCI).
